Laboratory results as given in patent US9708302B2, “Flouro-naphthyl derivatives” (Hoffmann-La Roche Inc., priority 2014, dated 2017).

Assays:
rat M1 = rat M1 (Rattus norvegicus (Rat), UniProt P08482); assay: M1 PAM Assay (FLIPR intracellular calcium), rat M1; assay type: cell-based; conditions: positive allosteric modulation in presence of EC20 of acetylcholine; second value of cell
Experimental: [The procedure below names another species; the source lists this species under the same test.] (§1) The assay study the effect of several concentrations of test compounds on basal or acetylcholine-stimulated Ca^2+ levels using FLIPR.
(§2) CHO human M1 are plated the day before the experiments at 2×10^5 cells/ml in PDL BioCoat 96 well black/clear plate (Becton 35 4640). The cells are grown at 37° C. and 5% CO2 in the following medium: F12 Nut Mix (Gibco 21765), 10% FCS heat inactivated (GIBCO 16000-044), 1% Pen Strep (Gibco, 15140) and 200 μg/ml Geneticin (Gibco 11811). On the day of the experiment, the medium was removed and replaced by 100 μl of dye loading buffer containing Hanks Balanced Salt solution (HBSS, 14065-049, Gibco) with 20 mM HEPES (Gibco 15630-056), 2 mM Probenicid (Sigma P8761), […] (Molecular Probes F-14202), 10% Pluronic acid Molecular Probes P-3000) pH=7.4 and incubated at 37° C. After 60 minutes extracellular dye was removed and the cells were washed five times with FLIPR buffer containing HBSS (Gibco 14065-049) with 20 mM HEPES (Gibco, 15630-056), 2 mM Probenicid (Sigma P8761) pre-warmed at 37° C. using and Ebml cell washer leaving 100 μl of FLIPR buffer in each well. The cell plate and the diluted compounds (1% DMSO final concentration) are placed on the platform of the FLIPR and the door closed. A signal test to check background fluorescence and basal fluorescence signal is performed. Laser intensity is adjusted if necessary. Two minutes preincubation with the diluted test compounds is provide to determine any agonist activity on the M1 receptor by comparison to 30 nM Acetylcholine control. In order to determine any modulator activity the diluted compounds were added to cells and after two minutes preincubation, the EC20 of acetylcholine is added followed by another two minutes preincubation before the measurement of intracellular Ca^2+ with a FLIPR (Molecular Devices).

hM1 = hM1 (Homo sapiens (Human), UniProt P11229); assay: M1 PAM Assay (FLIPR intracellular calcium, CHO human M1 cells); assay type: cell-based; conditions: positive allosteric modulation in presence of EC20 of acetylcholine, first value of cell
Experimental: as §1, §2

Sequence of rat M1 (P08482 whole entry): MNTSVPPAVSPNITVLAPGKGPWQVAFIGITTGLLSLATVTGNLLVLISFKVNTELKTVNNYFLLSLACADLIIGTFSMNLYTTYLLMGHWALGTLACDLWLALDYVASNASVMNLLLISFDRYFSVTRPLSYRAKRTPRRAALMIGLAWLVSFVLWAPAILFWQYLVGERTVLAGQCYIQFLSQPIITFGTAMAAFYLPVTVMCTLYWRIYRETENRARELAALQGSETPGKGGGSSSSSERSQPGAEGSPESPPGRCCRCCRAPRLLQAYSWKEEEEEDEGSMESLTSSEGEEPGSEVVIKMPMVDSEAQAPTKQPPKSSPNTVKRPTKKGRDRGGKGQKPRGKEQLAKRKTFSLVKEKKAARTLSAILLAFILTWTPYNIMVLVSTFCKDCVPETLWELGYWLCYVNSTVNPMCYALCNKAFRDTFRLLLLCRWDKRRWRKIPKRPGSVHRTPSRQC
Sequence of hM1 (P11229 whole entry): as the sequence (P08482 whole entry) above, with V5A, S254T, S309P, K320R, G337A, V413I counted along it

EC50 (rat M1)	EC50 (hM1)	Compound
	561 nM	C[C@]1(O)CCCC[C@@H]1NC(=O)c1cc(Cc2ccc(Cl)nc2)c2ccccc2c1F (racemic) [Example 7, 4-((6-chloropyridin-3-yl)methyl)-1-fluoro-N-((1SR,2SR)-2-hydroxy-2-methylcyclohexyl)-2-naphthamide]
356 nM	197 nM	O=C(N[C@H]1CCOC[C@@H]1O)c1cc(Cc2ccccc2)c2ccccc2c1F (racemic) [Example 11, 4-benzyl-1-fluoro-N-((3RS,4SR)-3-hydroxytetrahydro-2H-pyran-4-yl)-2-naphthamide]
273 nM	152 nM	O=C(N[C@H]1CCOC[C@@H]1O)c1cc(Cc2ccc(Cl)cc2)c2ccccc2c1F (racemic) [Example 12, 4-(4-chlorobenzyl)-1-fluoro-N-((3RS,4SR)-3-hydroxytetrahydro-2H-pyran-4-yl)-2-naphthamide]
14 nM	14 nM	Cn1cc(-c2ccc(Cc3cc(C(=O)N[C@H]4CCOC[C@@H]4O)c(F)c4ccccc34)c(F)c2)cn1 (racemic) [Example 14, 1-fluoro-4-(2-fluoro-4-(1-methyl-1H-pyrazol-4-yl)benzyl)-N-((3RS,4SR)-3-hydroxytetrahydro-2H-pyran-4-yl)-2-naphthamide]
	541 nM	O=C(N[C@H]1CCOC[C@@H]1O)c1cc(Cc2ccc(OC(F)(F)F)cc2)c2ccccc2c1F (racemic) [Example 15, 1-fluoro-N-((3RS,4SR)-3-hydroxytetrahydro-2H-pyran-4-yl)-4-(4-(trifluoromethoxy)benzyl)-2-naphthamide]
20 nM	11 nM	Cn1cc(-c2ccc(Cc3cc(C(=O)N[C@H]4CCOC[C@@H]4O)c(F)c4ccccc34)cc2)cn1 (racemic) [Example 16, 1-fluoro-N-((3RS,4SR)-3-hydroxytetrahydro-2H-pyran-4-yl)-4-(4-(1-methyl-1H-pyrazol-4-yl)benzyl)-2-naphthamide]
14 nM	10 nM	Cn1cc(-c2ccc(Cc3cc(C(=O)N[C@H]4CCCC[C@@H]4O)c(F)c4ccccc34)cn2)cn1 (racemic) [Example 17, 1-Fluoro-N-((1S,2S)-2-hydroxycyclohexyl)-4-((6-(1-methyl-1H-pyrazol-4-yl)pyridin-3-yl)methyl)-2-naphthamide]
6 nM	3 nM	Cn1cc(-c2ccc(Cc3cc(C(=O)N[C@H]4CCOC[C@@H]4O)c(F)c4ccccc34)cn2)cn1 (racemic) [Example 18, 1-fluoro-N-((3RS,4SR)-3-hydroxytetrahydro-2H-pyran-4-yl)-4-((6-(1-methyl-1H-pyrazol-4-yl)pyridin-3-yl)methyl)-2-naphthamide]
490 nM	213 nM	Cc1ccc(Cc2cc(C(=O)N[C@H]3CCCC[C@@H]3O)c(F)c3ccccc23)cn1 (racemic) [Example 23, 1-Fluoro-N-((1SR,2SR)-2-hydroxycyclohexyl)-4-((6-methylpyridin-3-yl)methyl)-2-naphthamide]
	428 nM	O=C(N[C@H]1COCC[C@@H]1O)c1cc(Cc2ccc(Cl)nc2)c2ccccc2c1F [Example 4, 4-((6-Chloropyridin-3-yl)methyl)-1-fluoro-N-((3S,4S)-4-hydroxytetrahydro-2H-pyran-3-yl)-2-naphthamide]
968 nM	363 nM	O=C(N[C@H]1CCC[C@@H]1O)c1cc(Cc2ccc(Cl)nc2)c2ccccc2c1F [Example 5, 4-((6-chloropyridin-3-yl)methyl)-1-fluoro-N-((1S,2S)-2-hydroxycyclopentyl)-2-naphthamide]
	575 nM	O=C(N[C@H]1CCC[C@H]1O)c1cc(Cc2ccc(Cl)nc2)c2ccccc2c1F [Example 6, 4-((6-chloropydridin-3-yl)methyl)-1-fluoro-N-((1S,2R)-2-hydroxycyclopentyl)-2-naphthamide]
2 nM	2 nM	Cn1cc(-c2ccc(Cc3cc(C(=O)N[C@H]4CCOC[C@@H]4O)c(F)c4ccccc34)cn2)cn1 [Example 20, 1-fluoro-N-[(3R,4S)-3-hydroxytetrahydropyran-4-yl]-4-[[6-(1-methylpyrazol-4-yl)-3-pyridyl]methyl]naphthalene-2-carboxamide]
48 nM	33 nM	Cn1cc(-c2ccc(Cc3cc(C(=O)N[C@H]4COCC[C@@H]4O)c(F)c4ccccc34)cn2)cn1 [Example 21, 1-fluoro-N-((3S,4S)-4-hydroxytetrahydro-2H-pyran-3-yl)-4-((6-(1-methyl-1H-pyrazol-4-yl)pyridin-3-yl)methyl)-2-naphthamide]
347 nM	230 nM	O=C(N[C@H]1CCCC[C@@H]1O)c1cc(Cc2ccc(C3CC3)nc2)c2ccccc2c1F [Example 24, 4-((6-Cyclopropylpyridin-3-yl)methyl)-1-fluoro-N-((1S,2S)-2-hydroxycyclohexyl)-2-naphthamide]

The remaining lines, values behind:

Compound	EC50 (rat M1)	EC50 (hM1)
O=C(N[C@H]1CCCC[C@@H]1O)c1cc(Cc2ccc(Cl)nc2)c2ccccc2c1F (racemic) [Example 1, 4-((6-Chloropyridin-3-yl)methyl)-1-fluoro-N-((1SR,2SR)-2-hydroxycyclohexyl)-2-naphthamide]	137 nM	159 nM
O=C(N[C@H]1CCOC[C@@H]1O)c1cc(Cc2ccc(Cl)nc2)c2ccccc2c1F (racemic) [Example 2, 4-((6-chloropyridin-3-yl)methyl)-1-fluoro-N-((3RS,4SR)-3-hydroxytetrahydro-2H-pyran-4-yl)-2-naphthamide]	118 nM	53 nM
C[C@@]1(O)CCCC[C@@H]1NC(=O)c1cc(Cc2ccc(Cl)nc2)c2ccccc2c1F (racemic) [Example 8, 4-((6-chloropyridin-3-yl)methyl)-1-fluoro-N-((1SR,2RS)-2-hydroxy-2-methylcyclohexyl)-2-naphthamide]		524 nM
O=C(N[C@H]1CCCC[C@H]1O)c1cc(Cc2ccc(Cl)nc2)c2ccccc2c1F (racemic) [Example 9, 4-((6-chloropyridin-3-yl)methyl)-1-fluoro-N-((1SR,2RS)-2-hydroxycyclohexyl)-2-naphthamide]		539 nM
Cc1ccc(Cc2cc(C(=O)N[C@H]3CCOC[C@@H]3O)c(F)c3ccccc23)cc1 (racemic) [Example 10, 1-Fluoro-N-((3RS,4SR)-3-hydroxytetrahydro-2H-pyran-4-yl)-4-(4-methylbenzyl)-2-naphthamide]	221 nM	154 nM
N#Cc1ccc(Cc2cc(C(=O)N[C@H]3CCOC[C@@H]3O)c(F)c3ccccc23)cc1 (racemic) [Example 13, 4-(4-cyanobenzyl)-1-fluoro-N-((3RS,4SR)-3-hydroxytetrahydro-2H-pyran-4-yl)-2-naphthamide]	71 nM	67 nM
Cn1cc(-c2ccc(Cc3cc(C(=O)N[C@H]4CCCC[C@@]4(C)O)c(F)c4ccccc34)cn2)cn1 (racemic) [Example 22, 1-fluoro-N-((1SR,2RS)-2-hydroxy-2-methylcyclohexyl)-4-((6-(1-methyl-1H-pyrazol-4-yl)pyridin-3-yl)methyl)-2-naphthamide]	41 nM	20 nM
O=C(N[C@@H]1CCOC[C@H]1O)c1cc(Cc2ccc(Cl)nc2)c2ccccc2c1F (stereo in doubt) [Example 25, 4-[(6-chloropyridin-3-yl)methyl]-1-fluoro-N-[(3S,4R)-3-hydroxyoxan-4-yl]naphthalene-2-carboxamide]	52 nM	27 nM
O=C(N[C@H]1CCCC[C@@H]1O)c1cc(Cc2ccc(Cl)nc2)c2ccccc2c1F [Example 3, 4-((6-chloropydridin-3-yl)methyl)-1-fluoro-N-((1S,2S)-2-hydroxycyclohexyl)-2-naphthamide]	101 nM	84 nM
Cn1cc(-c2ccc(Cc3cc(C(=O)N[C@@H]4CCOC[C@H]4O)c(F)c4ccccc34)cn2)cn1 [Example 19, 1-fluoro-N-[(3S,4R)-3-hydroxytetrahydropyran-4-yl]-4-[[6-(1-methylpyrazol-4-yl)-3-pyridyl]methyl]naphthalene-2-carboxamide]	97 nM	65 nM
N#CC1(c2ccccn2)CCN(Cc2cc(C(=O)N[C@H]3CCCC[C@@H]3O)c(F)c3ccccc23)CC1 [Example 26, 4-((4-Cyano-4-(pyridin-2-yl)piperidin-1-yl)methyl)-1-fluoro-N-((1S,2S)-2-hydroxycyclohexyl)-2-naphthamide]	345 nM	258 nM
